# Reference: PubChem BioAssay (NCI)
#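 A five-concentration, 48-hour dose response in 96-well plates underlies each endpoint, interpolated linearly between surrounding concentrations. The concentration for 50% growth inhibition is given as GI50. TGI denotes the concentration required for complete inhibition of growth.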
# What was measured:
# Experiment in all cases: NCI tumour cell line growth inhibition, 48 h
# SF-295 CNS = test system: SF-295 CNS
# A549 NSCLC = test system: A549 NSCLC
# K-562 leukemia = test system: K-562 leukemia
# HCT-15 colon = test system: HCT-15 colon
# SW-620 colon = test system: SW-620 colon
# M14 melanoma = test system: M14 melanoma
# COLO 205 colon = test system: COLO 205 colon
# CCRF-CEM leukemia = test system: CCRF-CEM leukemia
# EKVX NSCLC = test system: EKVX NSCLC
# U251 CNS = test system: U251 CNS
# RXF 393 renal = test system: RXF 393 renal
# HS 578T breast = test system: HS 578T breast
# MDA-MB-435 = test system: MDA-MB-435
# A498 renal = test system: A498 renal
# SNB-19 CNS = test system: SNB-19 CNS
# NCI-H460 lung = test system: NCI-H460 lung
# SK-MEL-5 melanoma = test system: SK-MEL-5 melanoma
# HOP-92 NSCLC = test system: HOP-92 NSCLC
# RPMI-8226 leukemia = test system: RPMI-8226 leukemia
# OVCAR-4 ovarian = test system: OVCAR-4 ovarian
# SN12C renal = test system: SN12C renal
# UACC-62 melanoma = test system: UACC-62 melanoma
# MDA-MB-231 breast = test system: MDA-MB-231 breast
# SF-268 CNS = test system: SF-268 CNS
# HL-60(TB) leukemia = test system: HL-60(TB) leukemia
# IGROV1 ovarian = test system: IGROV1 ovarian
# NCI-H522 lung = test system: NCI-H522 lung
# TK-10 renal = test system: TK-10 renal
# NCI-H23 lung = test system: NCI-H23 lung
# NCI-H226 lung = test system: NCI-H226 lung
# MALME-3M melanoma = test system: MALME-3M melanoma
# UO-31 renal = test system: UO-31 renal
# KM12 colon = test system: KM12 colon
# PC-3 prostate = test system: PC-3 prostate
# 786-0 renal = test system: 786-0 renal
# SK-OV-3 ovarian = test system: SK-OV-3 ovarian
# SF-539 CNS = test system: SF-539 CNS
# HCT-116 colon = test system: HCT-116 colon
# MCF7 breast = test system: MCF7 breast
# UACC-257 melanoma = test system: UACC-257 melanoma
# ACHN renal = test system: ACHN renal
# CAKI-1 renal = test system: CAKI-1 renal
# LOX IMVI melanoma = test system: LOX IMVI melanoma
# OVCAR-8 ovarian = test system: OVCAR-8 ovarian
# SNB-75 CNS = test system: SNB-75 CNS
# SK-MEL-2 melanoma = test system: SK-MEL-2 melanoma
# DU-145 prostate = test system: DU-145 prostate
# OVCAR-3 ovarian = test system: OVCAR-3 ovarian
# BT-549 breast = test system: BT-549 breast
# HT29 colon = test system: HT29 colon
# HCC-2998 colon = test system: HCC-2998 colon
# OVCAR-5 ovarian = test system: OVCAR-5 ovarian
# HOP-62 NSCLC = test system: HOP-62 NSCLC
# SK-MEL-28 melanoma = test system: SK-MEL-28 melanoma
# NCI/ADR-RES ovarian = test system: NCI/ADR-RES ovarian
# SR leukemia = test system: SR leukemia
# MOLT-4 leukemia = test system: MOLT-4 leukemia
structure (smiles),measurement,setting,value
CC(=O)Nc1ccc(Sc2ccc([N+](=O)[O-])o2)cc1,GI50,SF-295 CNS,10.4 µM
same,TGI,SF-295 CNS,23.5 µM
same,GI50,A549 NSCLC,6.37 µM
same,TGI,A549 NSCLC,23.3 µM
same,GI50,K-562 leukemia,2.22 µM
same,TGI,K-562 leukemia,> 30.8 µM
same,GI50,HCT-15 colon,0.806 µM
same,TGI,HCT-15 colon,3.18 µM
same,GI50,SW-620 colon,0.767 µM
same,TGI,SW-620 colon,2.22 µM
same,GI50,M14 melanoma,2.08 µM
same,TGI,M14 melanoma,4.09 µM
same,GI50,COLO 205 colon,0.651 µM
same,TGI,COLO 205 colon,1.82 µM
same,GI50,CCRF-CEM leukemia,0.886 µM
same,TGI,CCRF-CEM leukemia,3.93 µM
same,GI50,EKVX NSCLC,4.46 µM
same,TGI,EKVX NSCLC,25.2 µM
same,GI50,U251 CNS,3.06 µM
same,TGI,U251 CNS,11 µM
same,GI50,RXF 393 renal,0.929 µM
same,TGI,RXF 393 renal,3.46 µM
same,GI50,HS 578T breast,3.87 µM
same,TGI,HS 578T breast,24.9 µM
same,GI50,MDA-MB-435,1.7 µM
same,TGI,MDA-MB-435,3.44 µM
same,GI50,A498 renal,12.2 µM
same,TGI,A498 renal,25 µM
same,GI50,SNB-19 CNS,10.1 µM
same,TGI,SNB-19 CNS,23.2 µM
same,GI50,NCI-H460 lung,2.83 µM
same,TGI,NCI-H460 lung,8.93 µM
same,GI50,SK-MEL-5 melanoma,3.32 µM
same,TGI,SK-MEL-5 melanoma,11.4 µM
same,GI50,HOP-92 NSCLC,1.76 µM
same,TGI,HOP-92 NSCLC,3.55 µM
same,GI50,RPMI-8226 leukemia,2.13 µM
same,TGI,RPMI-8226 leukemia,8.65 µM
same,GI50,OVCAR-4 ovarian,2.27 µM
same,TGI,OVCAR-4 ovarian,5.1 µM
same,GI50,SN12C renal,2.96 µM
same,TGI,SN12C renal,10.7 µM
same,GI50,UACC-62 melanoma,1.83 µM
same,TGI,UACC-62 melanoma,3.84 µM
same,GI50,MDA-MB-231 breast,2.18 µM
same,TGI,MDA-MB-231 breast,4.95 µM
same,GI50,SF-268 CNS,3.16 µM
same,TGI,SF-268 CNS,11.8 µM
same,GI50,HL-60(TB) leukemia,1.29 µM
same,TGI,HL-60(TB) leukemia,3.79 µM
same,GI50,IGROV1 ovarian,1.27 µM
same,TGI,IGROV1 ovarian,4.27 µM
same,GI50,NCI-H522 lung,0.214 µM
same,TGI,NCI-H522 lung,0.711 µM
same,GI50,TK-10 renal,2.13 µM
same,TGI,TK-10 renal,5.99 µM
same,GI50,NCI-H23 lung,2.99 µM
same,TGI,NCI-H23 lung,10.2 µM
same,GI50,NCI-H226 lung,2.88 µM
same,TGI,NCI-H226 lung,8.7 µM
same,GI50,MALME-3M melanoma,2.09 µM
same,TGI,MALME-3M melanoma,4.77 µM
same,GI50,UO-31 renal,3.9 µM
same,TGI,UO-31 renal,13 µM
same,GI50,KM12 colon,2.84 µM
same,TGI,KM12 colon,9.08 µM
same,GI50,PC-3 prostate,2.23 µM
same,TGI,PC-3 prostate,6.58 µM
same,GI50,786-0 renal,2.69 µM
same,TGI,786-0 renal,7.55 µM
same,GI50,SK-OV-3 ovarian,8.37 µM
same,TGI,SK-OV-3 ovarian,20.6 µM
same,GI50,SF-539 CNS,3.13 µM
same,TGI,SF-539 CNS,11 µM
same,GI50,HCT-116 colon,0.924 µM
same,TGI,HCT-116 colon,2.75 µM
same,GI50,MCF7 breast,1.88 µM
same,TGI,MCF7 breast,6.92 µM
same,GI50,UACC-257 melanoma,1.61 µM
same,TGI,UACC-257 melanoma,3.52 µM
same,GI50,ACHN renal,1.62 µM
same,TGI,ACHN renal,4.29 µM
same,GI50,CAKI-1 renal,1.41 µM
same,TGI,CAKI-1 renal,3.06 µM
same,GI50,LOX IMVI melanoma,1.45 µM
same,TGI,LOX IMVI melanoma,3.05 µM
same,GI50,OVCAR-8 ovarian,3.06 µM
same,TGI,OVCAR-8 ovarian,13.4 µM
same,GI50,SNB-75 CNS,2.78 µM
same,TGI,SNB-75 CNS,12.8 µM
same,GI50,SK-MEL-2 melanoma,2.31 µM
same,TGI,SK-MEL-2 melanoma,6.29 µM
same,GI50,DU-145 prostate,2.26 µM
same,TGI,DU-145 prostate,5.98 µM
same,GI50,OVCAR-3 ovarian,0.664 µM
same,TGI,OVCAR-3 ovarian,1.95 µM
same,GI50,BT-549 breast,5.22 µM
same,TGI,BT-549 breast,10.6 µM
same,GI50,HT29 colon,1.56 µM
same,TGI,HT29 colon,3.25 µM
same,GI50,HCC-2998 colon,1.9 µM
same,TGI,HCC-2998 colon,3.52 µM
same,GI50,OVCAR-5 ovarian,2.34 µM
same,TGI,OVCAR-5 ovarian,5.9 µM
same,GI50,HOP-62 NSCLC,3.37 µM
same,TGI,HOP-62 NSCLC,10.5 µM
same,GI50,SK-MEL-28 melanoma,1.75 µM
same,TGI,SK-MEL-28 melanoma,3.6 µM
same,GI50,NCI/ADR-RES ovarian,2.88 µM
same,TGI,NCI/ADR-RES ovarian,11.3 µM
same,GI50,SR leukemia,2.8 µM
same,TGI,SR leukemia,12.6 µM
same,GI50,MOLT-4 leukemia,2.14 µM
same,TGI,MOLT-4 leukemia,6.42 µM
